Like-named read-outs stand apart in the source and are kept apart here.
Assays:
[1] = molecular target: hemagglutinin (BHA), fusion peptide exposure (Influenza A virus (A/X-31(H3N2)), UniProt P03438); type: biochemical, C22 / X31 influenza virus (H3N2)
low pH BHA = test: SPA POST control (nonspecific quenching); design: species or system C22 / X31 influenza virus (H3N2)
Procedure: The compounds being screened by SPA are present during scintillation counting. Some of the chemicals, particularly those that are highly colored, quench the detection of radioactivity. A control ("POST") distinguishes whether apparent inhibition arises from inhibition of the conformational change or from nonspecific effects. The test compound is added to a sample of BHA that had previously been acidified and reneutralized. The mixture is then precipitated as usual. Since the BHA treated in this manner is known to be in the low pH conformation, a reduction in measurable cpm compared to controls with ligand omitted proves the compound interferes with the detection system.
^3 H-Leu BHA was diluted to 10,000 cpm (counts per minute) per 200 μl in MSSH buffer (10 mM HEPES, 10 mM MES, 10 mM succinate, 0.10 M NaCl, pH 7.0) containing 0.1% NP40. Protein was incubated with the specified concentration of trial compound for 25 minutes at RT. The same volume of solvent used to dissolve the compound was added to control samples and the final concentration of DMSO in all solutions was 0.67% v/v. A predetermined amount of 1N HAc was added to bring the reactions to the appropriate pH (usually pH 5.0). Following a 5 minute (unless specified otherwise) incubation at RT, reactions were reneutralized with 1N NaOH. For POST controls, compounds were added to the appropriate concentration after reneutralization. 200 μL aliquots of the protein solution were added to scintillation vials containing 100 μl protein A-SPA beads (Amersham), 5% fetal bovine serum (FBS), and antibody. Vials were incubated overnight at RT with constant shaking. Each reaction used 10 μl of fusion peptide antiserum diluted 1:10 with 50% glycerol. Cpm were detected in a Beckman LS3801 scintillation counter without addition of liquid scintillant.
Apparent inhibition due to nonspecific effects was quantitated from the POST controls with the equation:
observed cpm=true cpm*quench factor

C22 virus in MDCK2 cells [2] = test: microbe, parasite or virus in culture; conditions: unidentified influenza virus; for inhibition at 1 µM / inhibition at 10 µM / inhibition at 100 µM: MDCK2, 15 h, read-out: infectivity % inhibition
hemoglobin = test: Hb control (quenching of OD570 of hemoglobin); design: species or system human
[3] = test system: hemagglutinin-mediated hemolysis of human red blood cells; test: Hemolysis (HEM) assay; type: cell-based, C22 influenza virus; human red blood cells; conditions: for inhibition at 100 µM / IC50 / inhibition at 1000 µM / inhibition at 10 µM / inhibition at 1 µM: unidentified influenza virus, Erythrocyte; for inhibition at 1000 µM: log conc -3 (M); for inhibition at 10 µM: log conc -5 (M); for inhibition at 1 µM: log conc -6 (M)
in vitro = conditions: dog, mdck
Procedure: The ELISA-based assay described below (EIA antiviral assay) was used to measure antiviral activity. Cell viability was measured in parallel to distinguish inhibition of viral replication from toxicity.
Infections of MDCK2 cells with virus, compounds, and DMSO were set up identically as for the EIA assay. Following the 15 hour incubation, test compounds were washed away with PBS. 50 μl of MDCK2 growth media and 25 μl 2 mg/ml 3-(4,5-dimethylthiazol-2-yl)-2,5-diphenyl tetrazolium bromide (Sigma) in PBS were added to each well. Plates were returned to 37° C., 5% CO2 for 4 hrs. Crystals were broken up by vigorous mixing following addition of 80 μl isopropanol/0.04 N HCl. After incubation for 30 mins at RT, OD570 was read on an ELISA reader. % Inhibition is the % reduction of OD570 in the wells infected with compound compared to otherwise identical samples with compound omitted.

C22 virus in MDCK2 cells [4] = test system: C22 virus in MDCK2 cells
[5] = MDCK2, read-out: INF, negative log of IC50 (preliminary results) (converted)
[6] = Table 7, preliminary results, read-out: HEM, negative log of IC50 (preliminary results) (converted)
[7] = log conc -4 (M), read-out: hemolysis % ↓ OD
[8] = 0.25 h, Table 6, 10^-3 = 1 mM, low pH 15 minutes, read-out: IC50 hemolysis

Sequence of hemagglutinin (BHA), fusion peptide exposure (Influenza A virus (A/X-31(H3N2)), UniProt P03438) (P03438 whole entry, looked up, the tested form may be a part): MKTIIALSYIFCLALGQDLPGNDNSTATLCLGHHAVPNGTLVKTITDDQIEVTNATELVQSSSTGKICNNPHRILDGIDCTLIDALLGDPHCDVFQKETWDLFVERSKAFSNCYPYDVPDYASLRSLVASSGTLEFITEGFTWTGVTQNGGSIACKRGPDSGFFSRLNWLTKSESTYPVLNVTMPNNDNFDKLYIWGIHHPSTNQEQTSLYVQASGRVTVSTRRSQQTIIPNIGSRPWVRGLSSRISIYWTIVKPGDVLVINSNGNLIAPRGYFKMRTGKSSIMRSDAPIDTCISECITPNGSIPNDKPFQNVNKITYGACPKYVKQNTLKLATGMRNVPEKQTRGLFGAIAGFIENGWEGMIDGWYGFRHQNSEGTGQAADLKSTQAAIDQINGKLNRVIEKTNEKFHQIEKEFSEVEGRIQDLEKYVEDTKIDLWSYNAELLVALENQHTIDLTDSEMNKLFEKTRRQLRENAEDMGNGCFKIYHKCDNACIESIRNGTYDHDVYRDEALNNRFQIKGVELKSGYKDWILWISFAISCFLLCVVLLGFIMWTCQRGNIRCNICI

## Oc1ccc(O)c2c1C1C=CC2C1 [Compound 83A, 5,8-dihydro-5,8-methano-1,4-naphthalenediol]
[1]
  SPA activity: significantly higher activity
Low pH BHA; log conc -3 (M)
  % inhibition, POST control: 0.5 ± 1.1%
Low pH BHA; log conc -4 (M)
  % inhibition, POST control: -0.9 ± 1.5%
Low pH BHA; log conc -5 (M)
  % inhibition, POST control: -0.5%
Low pH BHA; log conc -6 (M)
  % inhibition, POST control: 10.8%

## COC(=O)C1C2C=CC(C2)C1C(=O)OC (stereo not shown) [Compound 85, dimethylbicyclo[2.2.1]-5-heptene-2,3-dicarboxylate]
[1]; 1 μM-1 mM
  inhibition in the SPA assay: showed no inhibition

## O=C(O)C1C2C=CC(O2)C1C(=O)O (stereo not shown) [Compound 86, 3,6-endoxo-1,2,3,6-tetrahydrophthalic acid]
[1]; 1 μM-1 mM
  inhibition in the SPA assay: showed no inhibition
[1]; Table 7
  activity note in Table 7: inactive

## COC(=O)C1C2C=CC(C2)C1C(=O)O (stereo not shown) [Compound 87, 5-norbornene-2,3-dicarboxylic acid monomethyl ester]
[1]; 1 μM-1 mM
  inhibition in the SPA assay: showed no inhibition

## CC(=O)OC1CC2CC1C1C3C=CC(C3)C21 (stereo not shown) [Compound 88, 1,2,3,4,4A,5,8,8A-octahydro-1,4:5,8-dimethanonaphth-2-yl acetate]
[1]; 1 μM-1 mM
  inhibition in the SPA assay: showed no inhibition
[1]; Table 7
  activity note in Table 7: inactive

## O=C(O)[C@@H]1[C@H](C(=O)O)[C@@H]2C=C[C@H]1C2 [Compound 89, cis-5-norbornene-endo-2,3-dicarboxylic acid]
[1]; 1 μM-1 mM
  inhibition in the SPA assay: showed no inhibition
[1]; Table 7
  activity note in Table 7: inactive

## O=C(O)C1C=CCC2C(=O)C=CC(=O)C12 (stereo not shown) [Compound 91, 5,8-dioxo-1,4,4A,5,8,8A-hexahydro-1-naphthalene carboxylic acid]
C22 virus in MDCK2 cells [2]
  inhibition at 1 µM: -1.3 ± 4%
  inhibition at 10 µM: 6.5 ± 7%
  inhibition at 100 µM: 70.9 ± 39.8%
C22 virus in MDCK2 cells [2]; [5]
  IC50: 10 to 100 µM
hemoglobin; log conc -3 (M)
  Hb control % ↓ OD: 29.6 ± 2.5%
hemoglobin; log conc -4 (M)
  Hb control % ↓ OD: 26.8 ± 5.0%
hemoglobin; log conc -5 (M)
  Hb control % ↓ OD: 11%
hemoglobin; log conc -6 (M)
  Hb control % ↓ OD: 3%
[3]
  inhibition of hemolytic activity: apparently inhibited hemolytic activity
[3]; 0.1 mM, pH 5.0, FIG. 8, read-out: Maximum inhibition of hemolysis
  inhibition at 100 µM: 61%
[3]; [6]
  IC50: 100 to 1000 µM
[3]; read-out: hemolysis % ↓ OD
  inhibition at 1000 µM: 91 ± 14.6%
  inhibition at 10 µM: 13.2%
  inhibition at 1 µM: -5.1%
[3]; [7]
  inhibition at 100 µM: 60.5 ± 0.7%
In vitro
  cytotoxicity at 15 h, 1 µM: -0.06 ± 5.1%
  cytotoxicity at 15 h, 10 µM: -2 ± 9.4%
  cytotoxicity at 15 h, 100 µM: -4.3 ± 7%
Low pH BHA; log conc -3 (M)
  % inhibition, POST control: 54.5%

## ClC1(Cl)C2CC3C4C=CC(C4)C3C21 (stereo not shown) [Compound 92, 5,5-dichlorotetracyclo-[6.2.1.0,2,7.0.4.6] undec-9-ene]
[1]; 1 μM-1 mM
  inhibition in the SPA assay: showed no inhibition

## O=C1C2C3C=CC(C3)C2C(=O)N1O (stereo not shown) [Compound 94, N-hydroxy-5-norbornene-2,3-dicarboximide]
[1]; 1 μM-1 mM
  inhibition in the SPA assay: showed no inhibition
[1]; Table 7
  activity note in Table 7: inactive

## CN1C(=O)C2C3C=CC(C3)C2C1=O (stereo not shown) [Compound 95, N-methyl-5-norbornene-2,3-dicarboximide]
[1]; 1 μM-1 mM
  inhibition in the SPA assay: showed no inhibition
[1]; Table 7
  activity note in Table 7: inactive

## OC1CC2CC1C1C3C=CC(C3)C21 (stereo not shown) [Compound 96, 1,2,3,4,4A,5,8,8A-octahydro-1,4:5,8-dimethano-2-naphthol]
[1]; 1 μM-1 mM
  inhibition in the SPA assay: showed no inhibition

## COC(=O)C1C=CCC2C(=O)C=CC(=O)C12 (stereo not shown) [Compound 97, methyl 5,8-dioxo-1,4,4A,5,8,8A-hexahydro-1-naphthalenecarboxylate]
C22 virus in MDCK2 cells [2]
  inhibition at 1 µM: -4.7 ± 9.4%
  inhibition at 10 µM: 92.6 ± 12.7%
C22 virus in MDCK2 cells [2]; [5]
  IC50: 1 to 10 µM
hemoglobin; log conc -3 (M)
  Hb control % ↓ OD: 55.0 ± 13.3%
hemoglobin; log conc -4 (M)
  Hb control % ↓ OD: 37.6 ± 4.9%
hemoglobin; log conc -5 (M)
  Hb control % ↓ OD: 31%
hemoglobin; log conc -6 (M)
  Hb control % ↓ OD: 13.0%
[3]
  inhibition of hemolytic activity: apparently inhibited hemolytic activity
[3]; [6]
  IC50: 100 µM
[3]; read-out: hemolysis % ↓ OD
  inhibition at 1000 µM: 102 ± 5.8%
  inhibition at 10 µM: 23.7%
  inhibition at 1 µM: 6.6%
[3]; [7]
  inhibition at 100 µM: 94.6%
In vitro
  cytotoxicity at 15 h, 1 µM: -3.1 ± 7.9%
  cytotoxicity at 15 h, 10 µM: 32.9 ± 30.9%
  cytotoxicity at 15 h, 100 µM: 95.9 ± 8%

## O=C(O)C1C2C=CC(C2)C1C(=O)Nc1ccccc1 (stereo not shown) [Compound 98, 3-(N-phenylcarbamoyl)-5-norbornen-2-carboxylic acid]
[1]; 1 μM-1 mM
  inhibition in the SPA assay: showed no inhibition

## O=C1NC(=O)c2ccccc21 [Compound 100, phthalimide]
[1]; 1 μM-1 mM
  inhibition in the SPA assay: showed no inhibition
[1]; Table 7
  activity note in Table 7: inactive

## N#Cc1c(O)ccc(O)c1C#N [Compound 103, 2,3-dicyanohydroquinone]
[1]; 1 μM-1 mM
  inhibition in the SPA assay: showed no inhibition
[1]; Table 7
  activity note in Table 7: inactive

## Oc1ccc(O)cc1 [Compound 104, hydroquinone]
[1]
  activity note in Table 7: inactive
  inhibition in the SPA assay: showed no inhibition

## Oc1cccc2ccccc12 [Compound 106, 1-naphthol]
[1]; 1 μM-1 mM
  inhibition in the SPA assay: showed no inhibition
[1]; Table 7
  activity note in Table 7: inactive

## O=c1[nH][nH]c(=O)c2ccccc12 [Compound 108, phthalhydrazide]
[1]; 1 μM-1 mM
  inhibition in the SPA assay: showed no inhibition
[1]; Table 7
  activity note in Table 7: inactive

## OC1=CCC2C3C=CC(C3)C12 (stereo not shown) [Compound 109, hydroxydicyclopentadiene]
[1]; 1 μM-1 mM
  inhibition in the SPA assay: showed no inhibition
[1]; Table 7
  activity note in Table 7: inactive

## Cl.N=C(N)Sc1cc(O)ccc1O [Compound 112, 2-(2,5-dihydroxyphenyl)-2-thiopseudourea hydrochloride]
[1]
  % inhibition, sample: 40.1%

## CC1=CC(=O)c2ccccc2C1=O [Compound 118, 2-methyl-1,4-naphthoquinone]
[1]; 1 μM-1 mM
  inhibition in the SPA assay: showed no inhibition
[1]; Table 7
  activity note in Table 7: inactive

## O=C1C=CC(=O)c2c(O)cccc21 [Compound 119, 5-hydroxy-1,4-naphthoquinone]
[1]; 1 μM-1 mM
  inhibition in the SPA assay: showed no inhibition
[1]; Table 7
  activity note in Table 7: inactive
In vitro
  cytotoxicity at 15 h, 100 µM: 97.8%

## CCOC(=O)c1c(C)cc(O)cc1O [Compound 122, ethyl 2,4-dihydroxy-6-methylbenzoate]
[1]; 1 μM-1 mM
  inhibition in the SPA assay: showed no inhibition
[1]; Table 7
  activity note in Table 7: inactive

## Oc1ccc2ccccc2c1O [Compound 124, 1,2-dihydroxynaphthalene]
C22 virus in MDCK2 cells [4]; Table 6
  infectivity in Table 6: toxic
C22 virus in MDCK2 cells [4]; Table 7
  INF, words (Table 7): toxic
In vitro
  cytotoxicity at 15 h, 100 µM: 80.5%

## Oc1cccc2c(O)cccc12 [Compound 126, 1,5-naphthalenediol]
C22 virus in MDCK2 cells [2]
  inhibition at 1 µM: 3.8 ± 5.5%
  inhibition at 10 µM: 7.4 ± 1.8%
  inhibition at 100 µM: 35.6 ± 0.6%
C22 virus in MDCK2 cells [2]; MDCK2, read-out: IC50 infectivity
  IC50: > 100 µM
C22 virus in MDCK2 cells [2]; MDCK2, read-out: INF, negative log of IC50 (converted)
  IC50: > 100 µM
hemoglobin; log conc -3 (M)
  Hb control % ↓ OD: 54.4 ± 3.7%
[3]
  inhibition of hemolytic activity: apparently inhibited hemolytic activity
[3]; [8]
  IC50: 1000 µM
[3]; Table 7, read-out: HEM, negative log of IC50 (converted)
  IC50: 1000 µM
[3]; read-out: hemolysis % ↓ OD
  inhibition at 1000 µM: 101 ± 7.6%
In vitro
  cytotoxicity at 15 h, 1 µM: -6.9 ± 4%
  cytotoxicity at 15 h, 10 µM: -9.2 ± 0.6%
  cytotoxicity at 15 h, 100 µM: -7.6 ± 7.3%

## Oc1cccc2cccnc12 [Compound 127, 8-hydroxyquinoline]
[1]
  activity note in Table 7: inactive
  inhibition in the SPA assay: showed no inhibition

## O=C1C=C(Br)C(=O)c2ccccc21 [Compound 135, 2-bromo-1,4-naphthoquinone]
hemoglobin; log conc -3 (M)
  Hb control % ↓ OD: 75.2%
[3]
  inhibition of hemolytic activity: did not
[3]; [8]
  IC50: > 1000 µM
[3]; read-out: hemolysis % ↓ OD
  inhibition at 1000 µM: 80.3%

From patent US6080791A, “Method of treating a viral condition by inhibiting membrane fusion” (priority 1992, dated 2000)
